Laboratory results taken from US10123994B2, “Heterocyclic derivative having AMPK-activating activity” (SHIONOGI & CO., LTD., priority 2014, dated 2018).

Target: T1, Human AMPK α2β2γ1 (Homo sapiens, UniProt O43741+P54619+P54646)
T1 construct: The full length cDNAs of human AMPK β2 (NM_005399.3) and human AMPK α2 (NM_006252.3); The full length cDNAs of human AMPK β2 (NM_005399.3); the full length cDNA of human AMPK γ1 (NM_002733.3); 6xHis (N); made in house; host or cells: Escherichia coli BL21 CodonPlus (DE3)-RIL (AMPK); BL21 Star (DE3) (CaMKK2)
Experiment: Test Example 2: AMPK activator evaluation, mobility-shift kinase assay after CaMKK2 phosphorylation
Format: biochemical
Details: for EC150: compound concentration showing 150% relative to the control (100%); for Emax: maximum rate of increase in activity within the measurement range, control = 100%
Procedure: The full length cDNAs of human AMPK β2 (NM_005399.3) and human AMPK α2 (NM_006252.3) were inserted into the MCS1 and MCS2 of the pETDuet-1 vector to prepare a human AMPK β2 and human AMPK α2 (6× His tag at the 5′ terminus) expressing plasmid. The plasmid was cotransfected with an expression plasmid, in which the full length cDNA of human AMPK γ1 (NM_002733.3) had been inserted into pET28b(+), into BL21 CodonPlus (DE3)-RIL to obtain an expression strain. The expression strain was cultured in TB medium, followed by induction with 0.5 mM IPTG, and cultured at 25° C. for 3 hours and then harvested. After ultrasonication, supernatant was collected and applied to Histrap FF column (GE) and RESOUECE Q column (GE) to prepare 12.5 mg of purified sample containing three types of subunit from 1.8 L of broth.
An expression vector, in which the full length cDNA of human CAMKK β (NM_172226.1) had been inserted into pGEX-6P-3, was transfected into BL21 Star (DE3). The expression strain was cultured in TB medium, followed by induction with 0.5 mM IPTG, and cultured at 25° C. for 3 hours and then harvested. After ultrasonication, supernatant was collected and applied to GSTrap FF column (GE) to prepare 14 mg of GST-fused CAMKK β from 720 ml of broth.
Thus, phosphorylation treatment was carried out as pretreatment.
Human AMPK α2β2γ1 in an amount to give a conversion rate of approximately 10% by reaction for 2 hours, and CaMKK2 in an amount capable of sufficiently imparting activity to AMPK for one hour were mixed in a buffer solution consisting of a 50 mM HEPES-NaOH buffer solution (pH 7.0), 100 mM NaCl, 5 mM magnesium chloride, 0.1% bovine serum albumin, 0.2 mM sodium orthovanadate(V), 1 mM ethylene glycol-bis(2-aminoethyl ether)-N,N,N′,N′-tetraacetic acid (EGTA), 5 mM disodium β-glycerophosphate, 1 mM dithiothreitol and 0.2 mM ATP, and the obtained liquid was left to stand at 25° C. for 1 to 1.5 hours to sufficiently phosphorylate AMPK.
After that, to the enzyme liquid, which had been subjected to phosphorylation treatment, a compound dissolved in DMSO was added so as to have a 1% DMSO concentration. The obtained liquid was left to stand for 10 minutes.
To the liquid, a substrate solution consisting of a 50 mM HEPES-NaOH buffer solution (pH 7.0), 100 mM NaCl, 10 mM magnesium chloride, 0.1% bovine serum albumin, 0.2 mM sodium orthovanadate(V), 1 mM ethylene glycol-bis(2-aminoethyl ether)-N,N,N′,N′-tetraacetic acid (EGTA), 5 mM disodium β-glycerophosphate, 2 mM dithiothreitol, 0.4 mM ATP and 3 μM FL-Peptide 7 (manufactured by Caliper Life Sciences, Inc.) was added in equal amount (10 μl in total). The obtained liquid was allowed to react at 25° C. for 2 hours, and 10 μl of 20 mM EDTA was then added thereto to stop the reaction.
To detect phosphorylated fluorescent substrates, the reaction liquid was applied to a measuring device, LabChip EZ Reader II manufactured by Caliper Life Science, Inc., for detecting fluorescence by using differences in mobility due to differences in charge. The setting conditions for the device were pressure, −1.5 PSI; upstream voltage, −2250 V; downstream voltage, −400 V; post sample buffer sip time, 40 seconds; final delay, 120 seconds; and peak order, Product First.
A conversion rate was calculated from the peak heights of the resulting substrate and product. The conversion rate when not containing a compound was used as a control, and a concentration dependent curve was made by plotting the rate of increase in activity to the control at each concentration of a compound.

T1 sequence (P54646 whole entry): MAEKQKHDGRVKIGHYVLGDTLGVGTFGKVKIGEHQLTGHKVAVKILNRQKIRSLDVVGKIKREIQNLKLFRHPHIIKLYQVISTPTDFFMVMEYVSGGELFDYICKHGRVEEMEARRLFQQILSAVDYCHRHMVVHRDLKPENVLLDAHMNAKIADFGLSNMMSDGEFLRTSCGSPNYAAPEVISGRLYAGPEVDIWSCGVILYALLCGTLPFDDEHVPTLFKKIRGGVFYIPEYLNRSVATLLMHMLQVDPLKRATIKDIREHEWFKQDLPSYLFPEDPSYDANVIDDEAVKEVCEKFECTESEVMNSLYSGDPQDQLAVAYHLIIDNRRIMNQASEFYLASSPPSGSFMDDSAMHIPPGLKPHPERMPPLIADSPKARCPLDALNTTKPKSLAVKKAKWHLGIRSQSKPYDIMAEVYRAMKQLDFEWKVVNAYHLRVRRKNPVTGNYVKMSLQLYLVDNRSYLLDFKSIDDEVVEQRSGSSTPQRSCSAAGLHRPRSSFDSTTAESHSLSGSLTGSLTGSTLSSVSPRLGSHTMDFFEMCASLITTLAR
T1 sequence (O43741 whole entry): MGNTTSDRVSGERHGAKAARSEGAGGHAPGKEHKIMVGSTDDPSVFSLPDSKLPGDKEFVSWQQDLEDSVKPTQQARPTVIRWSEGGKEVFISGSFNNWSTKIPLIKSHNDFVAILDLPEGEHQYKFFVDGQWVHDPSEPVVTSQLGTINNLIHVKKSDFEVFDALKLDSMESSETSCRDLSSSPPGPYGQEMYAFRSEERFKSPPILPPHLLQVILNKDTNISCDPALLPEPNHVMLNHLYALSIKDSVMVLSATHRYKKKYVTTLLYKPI
T1 sequence (P54619 whole entry): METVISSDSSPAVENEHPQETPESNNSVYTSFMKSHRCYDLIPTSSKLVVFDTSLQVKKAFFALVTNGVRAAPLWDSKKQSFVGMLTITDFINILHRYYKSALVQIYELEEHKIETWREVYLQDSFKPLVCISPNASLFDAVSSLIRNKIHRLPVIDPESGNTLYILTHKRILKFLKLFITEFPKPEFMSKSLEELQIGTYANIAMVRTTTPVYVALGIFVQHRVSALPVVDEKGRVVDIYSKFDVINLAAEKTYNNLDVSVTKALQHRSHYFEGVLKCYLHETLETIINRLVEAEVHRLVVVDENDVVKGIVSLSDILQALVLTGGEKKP

| Structure (SMILES) | EC150 [nM] | Emax [%] |
| --- | --- | --- |
| O[C@@H]1CO[C@H]2[C@@H]1OC[C@H]2Oc1nc2nc(NC3CCc4ccccc43)c(Cl)cc2[nH]1 (stereo partly shown) [Compound I-1-8] | 67 | 617 |
| Oc1cccc(F)c1CNc1nc2nc(O[C@@H]3CO[C@H]4[C@@H]3OC[C@H]4O)[nH]c2cc1Cl [Compound I-2-1] | 30 | 588 |
| O[C@@H]1CO[C@H]2[C@@H]1OC[C@H]2Oc1nc2nc(NC3CCc4cccnc43)c(Cl)cc2[nH]1 (stereo partly shown) [Compound I-1-116] | 94 | 450 |
| OC[C@@H]1C[C@H](Oc2nc3nc(NCc4c(F)cccc4F)c(Cl)cc3[nH]2)CO1 [Compound I-2-19] | 74 | 506 |
| OCCCOc1cc(F)c(CNc2nc3nc(O[C@@H]4CO[C@H]5[C@@H]4OC[C@H]5O)[nH]c3cc2Cl)c(F)c1 [Compound I-1-36] | 16 | 475 |
| Cc1cccc(F)c1CNc1nc2nc(O[C@@H]3CO[C@H]4[C@@H]3OC[C@H]4O)[nH]c2cc1Cl [Compound I-1-6] | 21 | 496 |
| O[C@@H]1CO[C@H]2[C@@H]1OC[C@H]2Oc1nc2nc(NCc3c(F)cc(-c4cnn(CCN5CCOCC5)c4)cc3F)c(Cl)cc2[nH]1 [Compound I-2-228] | 8.5 | 528 |
| OCCO[C@@H]1CO[C@H]2[C@@H]1OC[C@H]2Oc1nc2nc(NCc3c(F)cccc3F)c(Cl)cc2[nH]1 [Compound I-1-119] | 84 | 432 |
| COCCOc1cc(F)c2c(c1)CC[C@@H]2Nc1nc2nc(O[C@@H]3CO[C@H]4[C@@H]3OC[C@H]4O)[nH]c2cc1Cl [Compound I-2-220] | 1.1 | 669 |
| O[C@@H]1CO[C@H]2[C@@H]1OC[C@H]2Oc1nc2nc(NCc3ccccc3F)c(Cl)cc2[nH]1 [Compound I-1-109] | 48 | 499 |
| O[C@@H]1CO[C@H]2[C@@H]1OC[C@H]2Oc1nc2nc(NCc3cccs3)c(Cl)cc2[nH]1 [Compound I-1-52] | 100 | 407 |
| COCCOc1cc(F)c2c(c1)OCC2Nc1nc2nc(O[C@@H]3CO[C@H]4[C@@H]3OC[C@H]4O)[nH]c2cc1Cl (stereo partly shown) [Compound I-2-185] | 6 | 569 |
| O[C@@H]1CO[C@H]2[C@@H]1OC[C@H]2Oc1nc2nc(NCc3c(F)cccc3F)c(C(F)(F)F)cc2[nH]1 [Compound I-2-22] | 130 | 480 |
| COC/C=C/c1cc(F)c2c(c1)CCC2Nc1nc2nc(O[C@@H]3CO[C@H]4[C@@H]3OC[C@H]4O)[nH]c2cc1Cl (stereo partly shown) [Compound I-2-238] | 4.1 | 553 |
| O[C@@H]1CO[C@H]2[C@@H]1OC[C@H]2Oc1nc2nc(NCc3c(F)cccc3F)c(Cl)cc2[nH]1 [Compound I-1-1] | 29 | 484 |
| O=C(c1cc(F)c2c(c1)CCC2Nc1nc2nc(O[C@@H]3CO[C@H]4[C@@H]3OC[C@H]4O)[nH]c2cc1Cl)N1CCCCC1 (stereo partly shown) [Compound I-2-147] | 4.5 | 532 |
| CS(=O)(=O)CCCOc1cc(F)c(CNc2nc3nc(O[C@@H]4CO[C@H]5[C@@H]4OC[C@H]5O)[nH]c3cc2Cl)c(F)c1 [Compound I-2-91] | 5.4 | 532 |
| CCOCCOc1cc(F)c2c(c1)CCC2Nc1nc2nc(O[C@@H]3CO[C@H]4[C@@H]3OC[C@H]4O)[nH]c2cc1Cl (stereo partly shown) [Compound I-2-223] | 2.8 | 649 |

| Structure (SMILES) | EC150 [nM] | Emax [%] |
| --- | --- | --- |
| COCCOc1cc(F)c(CSc2nc3nc(O[C@@H]4CO[C@H]5[C@@H]4OC[C@H]5O)[nH]c3cc2Cl)c(F)c1 [Compound I-1-4] | 40 | 766 |
| O[C@@H]1CO[C@H]2[C@@H]1OC[C@H]2Oc1nc2nc(NCc3c(F)cc(C4=CCNCC4)cc3F)c(Cl)cc2[nH]1 [Compound I-2-209] | 22 | 558 |
| CS(=O)(=O)NCCOc1cc(F)c(CNc2nc3nc(O[C@@H]4CO[C@H]5[C@@H]4OC[C@H]5O)[nH]c3cc2Cl)c(F)c1 [Compound I-2-93] | 9.9 | 602 |
| O[C@@H]1CO[C@H]2[C@@H]1OC[C@H]2Oc1nc2nc(NCc3c(F)cccc3F)c(F)cc2[nH]1 [Compound I-1-10] | 740 | 406 |
| O[C@@H]1CO[C@H]2[C@@H]1OC[C@H]2Oc1nc2nc(NC3COc4ccccc43)c(Cl)cc2[nH]1 (stereo partly shown) [Compound I-1-11] | 170 | 512 |
| OCCn1ccc(CNc2nc3nc(O[C@@H]4CO[C@H]5[C@@H]4OC[C@H]5O)[nH]c3cc2Cl)n1 [Compound I-2-62] | 94 | 388 |
| CC(=O)NC(C)(C)c1ccc(Oc2nc3nc(NCc4c(F)cccc4F)c(Cl)cc3[nH]2)cn1 [Compound I-1-126] | 170 | 332 |
| CN1CCC(Oc2cc(F)c(CNc3nc4nc(O[C@@H]5CO[C@H]6[C@@H]5OC[C@H]6O)[nH]c4cc3Cl)c(F)c2)CC1 [Compound I-2-192] | 7.6 | 568 |
| O=C1CCCN1CCOc1cc(F)c(CNc2nc3nc(O[C@@H]4CO[C@H]5[C@@H]4OC[C@H]5O)[nH]c3cc2Cl)c(F)c1 [Compound I-2-188] | 15 | 603 |
| O=C(c1cc(F)c2c(c1)CCC2Nc1nc2nc(O[C@@H]3CO[C@H]4[C@@H]3OC[C@H]4O)[nH]c2cc1Cl)N1CC[C@H](F)C1 (stereo partly shown) [Compound I-2-153] | 5.2 | 546 |
| COCCOc1cc(F)c2c(c1)CCC2Nc1nc2nc(O[C@@H]3CO[C@H]4[C@@H]3OC[C@H]4O)[nH]c2cc1Cl (stereo partly shown) [Compound I-1-38] | 1.2 | 568 |
| Cn1cc(-c2cc(F)c(CNc3nc4nc(O[C@@H]5CO[C@H]6[C@@H]5OC[C@H]6O)[nH]c4cc3Cl)c(F)c2)ccc1=O [Compound I-2-217] | 47 | 637 |
| Cn1cc(-c2cc(F)c(CNc3nc4nc(O[C@@H]5CO[C@H]6[C@@H]5OC[C@H]6O)[nH]c4cc3Cl)c(F)c2)cn1 [Compound I-1-39] | 26 | 506 |
| CC(C)(O)CCc1cc(F)c(CNc2nc3nc(O[C@@H]4CO[C@H]5[C@@H]4OC[C@H]5O)[nH]c3cc2Cl)c(F)c1 [Compound I-2-233] | 9.3 | 507 |
| O[C@@H]1CO[C@H]2[C@@H]1OC[C@H]2Oc1nc2nc(NCc3c(F)cc(Cl)cc3F)c(Cl)cc2[nH]1 [Compound I-1-14] | 42 | 750 |
| CCc1ccc(CNc2nc3nc(O[C@@H]4CO[C@H]5[C@@H]4OC[C@H]5O)[nH]c3cc2Cl)s1 [Compound I-2-75] | 26 | 542 |
| OCCOc1cc(F)c(CNc2nc3nc(O[C@@H]4CO[C@H]5[C@@H]4OC[C@H]5O)[nH]c3cc2Cl)c(F)c1 [Compound I-1-15] | 5.8 | 894 |
